Results published in patent US20230143612A1 (Arbutus Biopharma Corporation, priority 2020, published 2023).

What follows are compounds tested against PD-L1 His protein / PD-1 Fc protein (Homo sapiens, UniProt Q9NZQ7) (assay: HTRF Assay (PD-1/PD-L1 interaction)). Conditions: PD-L1 His 6 nM, PD-1 Fc 6 nM.
Type: binding
Outline: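 HTRF: PD-L1 His (6 nM final), compound (3-fold dilutions, 20 μM to 0.001 μM final) and PD-1 Fc (6 nM final) preincubated 15 min at room temperature. Anti-human IgG-XL665 and anti-6HIS Tb cryptate (mixed at 6.7 nM and 0.35 nM) then added for 1 h at room temperature before reading.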

PD-L1 His protein / PD-1 Fc protein, sequence (Q9NZQ7 19-238 limits assumed): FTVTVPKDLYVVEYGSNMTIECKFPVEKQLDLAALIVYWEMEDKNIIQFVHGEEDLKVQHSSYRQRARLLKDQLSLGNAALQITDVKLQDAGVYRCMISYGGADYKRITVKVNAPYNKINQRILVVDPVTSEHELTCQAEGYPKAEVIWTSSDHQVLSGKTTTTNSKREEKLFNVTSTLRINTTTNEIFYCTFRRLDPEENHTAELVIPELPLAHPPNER

Compound	IC50 [nM]
COc1nc(-c2cccc(-c3cccc(-c4cc5c(=O)n(C)c(CNC[C@H](C)OC)nn5c4)c3Cl)c2Cl)ccc1CNC[C@@H]1CCC(=O)N1 [Example 475, 6-[2-Chloro-3-[2-chloro-3-[6-methoxy-5-[[[(2S)-5-oxopyrrolidin-2-yl]methylamino]methyl]-2-pyridyl]phenyl]phenyl]-2-[[[(2S)-2-methoxypropyl]amino]methyl]-3-methyl-pyrrolo[2,1-f][1,2,4]triazin-4-one]	530
COc1nc(-c2cccc(-c3cccc(-c4cc5c(=O)n(C)c(CNCC(C)(C)O)nn5c4)c3Cl)c2Cl)cc(Cl)c1CNC[C@@H]1CCC(=O)N1 [Example 478, (S)-6-(2,2′-Dichloro-3′-(4-chloro-6-methoxy-5-((((5-oxopyrrolidin-2-yl)methyl)amino)methyl)pyridin-2-yl)-[1,1′-biphenyl]-3-yl)-2-(((2-hydroxy-2-methylpropyl)amino)methyl)-3-methylpyrrolo[2,1-f][1,2,4]triazin-4(3H)-one]	29
COc1nc(-c2cccc(-c3cccc(-c4ccc5cc(CNC[C@@H]6CCC(=O)N6)ccc5n4)c3Cl)c2Cl)ccc1CNC[C@@H]1CCC(=O)N1 [Example 369, (5S)-5-[[[2-[2-Chloro-3-[2-chloro-3-[6-methoxy-5-[[[(2S)-5-oxopyrrolidin-2-yl]methylamino]methyl]-2-pyridyl]phenyl]phenyl]-6-quinolyl]methylamino]methyl]pyrrolidin-2-one]	560
COc1nc(-c2cccc(-c3cccc(-c4ccn5c(=O)c(CNC[C@@H](C)O)cnc5c4)c3Cl)c2Cl)ccc1CNC[C@H](C)O [Example 195, 8-(2,2′-Dichloro-3′-(5-((((S)-2-hydroxypropyl)amino)methyl)-6-methoxypyridin-2-yl)-[1,1′-biphenyl]-3-yl)-3-((((R)-2-hydroxypropyl)amino)methyl)-4H-pyrido[1,2-a]pyrimidin-4-one]	2.5
COc1nc(-c2cccc(-c3cccc(-c4ccc5c(c4)N(C)CCNC5)c3Cl)c2Cl)ccc1CNC[C@@H]1CCC(=O)N1 [Example 364, (S)-5-((((6-(2,2′-Dichloro-3′-(1-methyl-2,3,4,5-tetrahydro-1H-benzo[e][1,4]diazepin-8-yl)-[1,1′-biphenyl]-3-yl)-2-methoxypyridin-3-yl)methyl)amino)methyl)pyrrolidin-2-one]	150
COc1nc(-c2cccc(-c3cccc(-c4ccn5c(=O)c(CNC[C@@H]6CCC(=O)N6)c(C)nc5c4)c3Cl)c2Cl)cc(F)c1CNC[C@@H]1CCC(=O)N1 [Example 404, 8-(2,2′-Dichloro-3′-(4-fluoro-6-methoxy-5-(((((S)-5-oxopyrrolidin-2-yl)methyl)amino)methyl)pyridin-2-yl)-[1,1′-biphenyl]-3-yl)-2-methyl-3-(((((S)-5-oxopyrrolidin-2-yl)methyl)amino)methyl)-4H-pyrido[1,2-a]pyrimidin-4-one]	0.1
COc1nc(-c2cccc(-c3cccc(-c4ccn5c(=O)c(CNC[C@@H]6CCC(=O)N6)cnc5c4)c3Cl)c2Cl)ccc1CN1CC[C@H](O)C1 [Example 175, 8-(2,2′-Dichloro-3′-(5-(((S)-3-hydroxypyrrolidin-1-yl)methyl)-6-methoxypyridin-2-yl)-[1,1′-biphenyl]-3-yl)-3-(((((S)-5-oxopyrrolidin-2-yl)methyl)amino)methyl)-4H-pyrido[1,2-a]pyrimidin-4-one]	0.1
COc1nc(-c2cccc(-c3cccc(-c4cc(C)n5c(=O)c(CN[C@H]6C[C@](C)(O)C6)cnc5c4)c3Cl)c2Cl)ccc1CNC[C@@H]1CCC(=O)N1 [Example 211]	21
COc1nc(-c2cccc(-c3cccc(-c4ccn5c(CNC[C@@H]6CCC(=O)N6)cnc5c4)c3Cl)c2Cl)ccc1CNC[C@@H]1CCC(=O)N1 [Example 380]	24
COC(=O)C[C@H](O)CNCc1ccc(-c2cccc(-c3cccc(-c4ccn5c(=O)c(CNC[C@@H](O)CC(=O)OC)cnc5c4)c3Cl)c2Cl)nc1OC [Example 231, Methyl (3S)-4-[[6-[2-chloro-3-[2-chloro-3-[3-[[[(2S)-2-hydroxy-4-methoxy-4-oxo-butyl]amino]methyl]-4-oxo-pyrido[1,2-a]pyrimidin-8-yl]phenyl]phenyl]-2-methoxy-3-pyridyl]methylamino]-3-hydroxy-butanoate]	120
COc1nc(-c2cccc(-c3cccc(-c4cc5ncc(CNC[C@@H]6CCC(=O)N6)cc5cn4)c3Cl)c2Cl)ccc1CNC[C@@H]1CCC(=O)N1 [Example 258, (S)-5-((((6-(2,2′-Dichloro-3′-(3-(((((S)-5-oxopyrrolidin-2-yl)methyl)amino)methyl)-1,6-naphthyridin-7-yl)-[1,1′-biphenyl]-3-yl)-2-methoxypyridin-3-yl)methyl)amino)methyl) pyrrolidin-2-one]	0.1
COc1nc(-c2cccc(-c3cccc(-c4cc5c(=O)n(C)c(CNC[C@@H](O)CC(=O)N(C)C)nn5c4)c3Cl)c2Cl)ccc1CNC[C@@H]1CCC(=O)N1 [Example 481, (S)-4-(((6-(2,2′-Dichloro-3′-(6-methoxy-5-(((((S)-5-oxopyrrolidin-2-yl)methyl)amino)methyl)pyridin-2-yl)-[1,1′-biphenyl]-3-yl)-3-methyl-4-oxo-3,4-dihydropyrrolo[2,1-f][1,2,4]triazin-2-yl)methyl)amino)-3-hydroxy-N,N-dimethylbutanamide]	42
COc1nc(-c2cccc(-c3cccc(-c4ccn5c(=O)c(CNC[C@@H]6CCCO6)cnc5c4)c3Cl)c2Cl)ccc1CNC[C@@H]1CCC(=O)N1 [Example 307, 8-[2-Chloro-3-[2-chloro-3-[6-methoxy-5-[[[(2S)-5-oxopyrrolidin-2-yl]methylamino]methyl]-2-pyridyl]phenyl]phenyl]-3-[[[(2S)-tetrahydrofuran-2-yl]methylamino]methyl]pyrido[1,2-a]pyrimidin-4-one]	37
COC(=O)C[C@H](O)CNCc1nn2cc(-c3cccc(-c4cccc(-c5ccc(CNC[C@@H]6CCC(=O)N6)c(OC)n5)c4Cl)c3Cl)cc2c(=O)n1C [Example 489, Methyl (3S)-4-[[6-[2-chloro-3-[2-chloro-3-[6-methoxy-5-[[[(2S)-5-oxopyrrolidin-2-yl]methylamino]methyl]-2-pyridyl]phenyl]phenyl]-3-methyl-4-oxo-pyrrolo[2,1-f][1,2,4]triazin-2-yl]methylamino]-3-hydroxy-butanoate]	1500
COc1nc(-c2cccc(-c3cccc(-c4cc(C)n5c(=O)c(C6=NCC(O)CN6)cnc5c4)c3Cl)c2Cl)ccc1CNC[C@@H]1CCC(=O)N1 (stereo partly drawn) [Example 323, 8-(2,2′-Dichloro-3′-(6-methoxy-5-(((((S)-5-oxopyrrolidin-2-yl)methyl)amino)methyl)pyridin-2-yl)-[1,1′-biphenyl]-3-yl)-3-(5-hydroxy-1,4,5,6-tetrahydropyrimidin-2-yl)-6-methyl-4H-pyrido[1,2-a]pyrimidin-4-one]	5.9
COc1nc(-c2cccc(-c3cccc(-c4ccc5c(OC)c(CNC[C@H](C)O)cc(Cl)c5n4)c3Cl)c2Cl)ccc1CNC[C@@H]1CCC(=O)N1 [Example 367, (S)-5-((((6-(2,2′-Dichloro-3′-(8-chloro-6-((((S)-2-hydroxypropyl)amino)methyl)-5-methoxyquinolin-2-yl)-[1,1′-biphenyl]-3-yl)-2-methoxypyridin-3-yl)methyl)amino)methyl)pyrrolidin-2-one]	21
COc1nc(-c2cccc(-c3cccc(N4Cc5ccc(CNC[C@@H]6CCC(=O)N6)cc5C4=O)c3Cl)c2Cl)ccc1CNC[C@@H]1CCC(=O)N1 [Example 483, 2-(2,2′-Dichloro-3′-(6-methoxy-5-(((((S)-5-oxopyrrolidin-2-yl)methyl)amino)methyl)pyridin-2-yl)-[1,1′-biphenyl]-3-yl)-6-(((((S)-5-oxopyrrolidin-2-yl)methyl)amino)methyl)isoindolin-1-one]	0.1
COc1nc(-c2cccc(-c3cccc(-c4ccn5c(=O)c(CNC[C@@H]6CCC(=O)N6)cnc5c4)c3Cl)c2Cl)ccc1CNC[C@@H](C)O [Example 198, 8-(2,2′-Dichloro-3′-(5-((((R)-2-hydroxypropyl)amino)methyl)-6-methoxypyridin-2-yl)-[1,1′-biphenyl]-3-yl)-3-(((((S)-5-oxopyrrolidin-2-yl)methyl)amino)methyl)-4H-pyrido[1,2-a]pyrimidin-4-one]	0.3
Cc1c(-c2ccn3c(=O)c(CNC[C@@H]4CCC(=O)N4)cnc3c2)cccc1-c1cccc(-c2ccc3c(c2)CC(NC(=O)[C@@H](N)CO)C3)c1Cl (mixture of isomers) [Example 45, (2S)-2-Amino-N-(5-(2-chloro-2′-methyl-3′-(4-oxo-3-(((((S)-5-oxopyrrolidin-2-yl)methyl)amino)methyl)-4H-pyrido[1,2-a]pyrimidin-8-yl)-[1,1′-biphenyl]-3-yl)-2,3-dihydro-1H-inden-2-yl)-3-hydroxypropanamide]	680
COc1nc(-c2cccc(-c3cccc(-c4ccc5nn(CCO)c(=O)n5c4)c3Cl)c2Cl)ccc1CNC[C@@H]1CCC(=O)N1 [Example 239, (S)-6-(2,2′-Dichloro-3′-(6-methoxy-5-((((5-oxopyrrolidin-2-yl)methyl)amino)methyl)pyridin-2-yl)-[1,1′-biphenyl]-3-yl)-2-(2-hydroxyethyl)-[1,2,4]triazolo[4,3-a]pyridin-3(2H)-one]	0.1
COc1nc(-c2cccc(-c3cccc(-c4ccn5c(=O)c(CNC[C@@H]6CCC(=O)N6)cnc5c4)c3Cl)c2Cl)ccc1C1(CN)CC1 [Example 283, (S)-8-(3′-(5-(1-(Aminomethyl)cyclopropyl)-6-methoxypyridin-2-yl)-2,2′-dichloro-[1,1′-biphenyl]-3-yl)-3-((((5-oxopyrrolidin-2-yl)methyl)amino)methyl)-4H-pyrido[1,2-a]pyrimidin-4-one]	150
COc1nc(-c2cccc(-c3cccc(-c4ccn5c(=O)c(CNC[C@@H]6CCC(=O)N6)ccc5c4)c3Cl)c2Cl)cnc1CNC[C@@H]1CCC(=O)N1 [Example 107, 8-(2,2′-Dichloro-3′-(6-methoxy-5-(((((S)-5-oxopyrrolidin-2-yl)methyl)amino)methyl)pyrazin-2-yl)-[1,1′-biphenyl]-3-yl)-3-(((((S)-5-oxopyrrolidin-2-yl)methyl)amino)methyl)-4H-quinolizin-4-one]	0.4
